# Columns and labels:
# [1] = tested on: Alternaria solani; assay: Test B: tomato early blight, preventive spray on tomato seedlings, visual disease rating; details: tomato early blight, preventive spray; 100 = 100% disease control; rating without asterisk
# [2] = tested on: Septoria nodorum; assay: Test E: Septoria glume blotch, preventive spray on wheat seedlings, visual disease rating; details: Septoria glume blotch on wheat, preventive spray; 100 = 100% disease control; rating without asterisk
# [3] = tested on: Puccinia recondita f. sp. tritici; assay: Test G: wheat leaf rust, spray after inoculation (curative) on wheat seedlings, visual disease rating; type: in vivo; details: spray after inoculation, 100 = 100% disease control, rating without asterisk
# Description: A hyphen (-) indicates no test results.
# [4] = tested on: Botrytis cinerea; assay: Test A: tomato Botrytis, preventive spray on tomato seedlings, visual disease rating; details: tomato Botrytis, preventive spray; 100 = 100% disease control, 0 = no control relative to controls; rating without asterisk
# [5] = tested on: Puccinia recondita f. sp. tritici; assay: Test H: wheat leaf rust, preventive spray on wheat seedlings, visual disease rating; details: wheat leaf rust, preventive spray; 100 = 100% disease control; rating without asterisk
# [6] = tested on: Phytophthora infestans; assay: whole plant or invertebrate; type: in vivo; details: tomato late blight, preventive spray; 100 = 100% disease control; rating without asterisk
# [7] = tested on: Blumeria graminis f. sp. tritici; assay: Test I: wheat powdery mildew, preventive spray on wheat seedlings, visual disease rating; details: wheat powdery mildew, preventive spray; 100 = 100% disease control; rating without asterisk
# [8] = tested on: Puccinia recondita f sp. tritici; assay: Test L (L1-L5): wheat leaf rust, Compound 81 alone and in mixtures, observed and Colby expected control; type: in vivo
# [9] = tested on: Septoria tritici; assay: Test M (M1-M5): wheat leaf blotch, Compound 81 alone and in mixtures, observed and Colby expected control; type: in vivo
# [10] = tested on: Blumeria graminis f. sp. tritici; assay: Test K (K1-K5): wheat powdery mildew, Compound 81 alone and in mixtures, observed and Colby expected control; type: in vivo; details: for Test K5 Obsd, disease control rating: wheat powdery mildew
Compound,Test B rating (% disease control) [1] [%],Test E rating (% disease control) [2] [%],Test G rating (% disease control) [3] [%],Test A rating (% disease control) [4] [%],Test H rating (% disease control) [5] [%],Test C rating (% disease control) [6] [%],Test I rating (% disease control) [7] [%],further results
COc1ccc(-c2c(C)nn(C)c2Nc2c(F)cc(Cl)cc2Cl)c(F)c1 [compound 191],99,92,46,100,99,0,99,
"Cc1nn(C)c(Nc2c(F)cc(F)cc2Br)c1-c1ccc(F)cc1Br [Compound 195, N-(2-bromo-4,6-difluorophenyl)-4-(2-bromo-4-fluorophenyl)-1,3-dimethyl-1H-pyrazol-5-amine]",100,99,89,,,0,,
"Cc1nn(C)c(Nc2c(F)cccc2Cl)c1-c1ccc(F)cc1F [Compound 275, N-(2-chloro-6-fluorophenyl)-4-(2,4-difluorophenyl)-1,3-dimethyl-1H-pyrazol-5-amine]",99,60,9,,,0,,
Fc1ccc(Oc2ccnc3cc(Cl)cc(Cl)c23)cc1 [quinoxyfen],,,,,,,,"Test L1 Obsd ([8]; component (b) 10 ppm alone): 0%; Test L1 Obsd ([8]; component (b) 40 ppm alone): 0%; Test L1 Obsd ([8]; component (b) 200 ppm alone): 0%; Test M5 Obsd disease control rating ([9]; component (b) alone 10 ppm): 0%; Test M5 Obsd disease control rating ([9]; component (b) alone 40 ppm): 0%; Test M5 Obsd disease control rating ([9]; component (b) alone 200 ppm): 8%; Test K5 Obsd, disease control rating ([10]; component (b) 0.016 ppm alone): 21%; Test K5 Obsd, disease control rating ([10]; component (b) 0.08 ppm alone): 29%; Test K5 Obsd, disease control rating ([10]; component (b) 0.4 ppm alone): 64%; Test K5 Obsd, disease control rating ([10]; component (b) 2 ppm alone): 93%"
CCOc1ccc(-c2c(C)nn(C)c2Nc2c(F)cc(Cl)cc2Cl)c(F)c1 [compound 190],82,0,9,100,96,0,95,
CCOc1ccc(-c2c(C)nn(C)c2Nc2c(F)cc(F)cc2Cl)c(F)c1 [compound 188],99,92,0,100,98,0,98,
CCOc1ccc(-c2c(C)nn(C)c2Nc2c(F)cc(Cl)cc2F)c(F)c1 [compound 189],88,90,0,100,98,0,98,
"CC1CCN(c2c(-c3c(F)cc(F)cc3F)c(Cl)nc3ncnn23)CC1 [BAS600, 5-chloro-6-(2,4,6-trifluorophenyl)-7-(4-methylpiperidin-1-yl)[1,2,4]triazolo[1,5-a]pyrimidine]",,,,,,,,"Test L3 Obsd ([8]; component (b) 0.08 ppm alone): 74%; Test L3 Obsd ([8]; component (b) 0.4 ppm alone): 88%; Test L3 Obsd ([8]; component (b) 2 ppm alone): 99%; Test L3 Obsd ([8]; component (b) 10 ppm alone): 100%; Test M2 Obsd, disease control rating ([9]; component (b) 0.016 ppm alone): 0%; Test M2 Obsd, disease control rating ([9]; component (b) 0.08 ppm alone): 0%; Test M2 Obsd, disease control rating ([9]; component (b) 0.4 ppm alone): 93%; Test M2 Obsd, disease control rating ([9]; component (b) 2 ppm alone): 100%; Test K3 Obsd ([10]; component (b) 0.08 ppm alone): 0%; Test K3 Obsd ([10]; component (b) 0.4 ppm alone): 0%; Test K3 Obsd ([10]; component (b) 2 ppm alone): 96%; Test K3 Obsd ([10]; component (b) 10 ppm alone): 100%"

# Source: patent publication US20170150719A1, “FUNGICIDAL PYRAZOLES AND THEIR MIXTURES” (E I DU PONT DE NEMOURS AND COMPANY, priority 2010, published 2017)
